Measurements reported in US10213409B2, “Substituted benzofurans, benzothiophenes, benzoselenophenes and indoles and their use as tubulin polymerisation inhibitors” (Bionomics Limited, priority 2006, dated 2019).

Experiments:
[1] = system: MDA-MB-231 solid orthotopic tumors; assay: Tumor Growth Inhibition; type: in vivo, Balb/c nu/nu mice; conditions: 40 mg/kg i.v., two cycles, 72 days; vs vehicle, significant from day 4 (p<0.001) to Day 70, FIG. 5
Experimental: Balb/c nu/nu mice bearing MDA-MB-231 solid orthotopic tumors were treated with compound Example 29 at 40 mg/kg. Animals were i.v. dosed with a total of two cycles of Example 29 treatment. Each cycle was dosing on […] followed by a three week no-dosing period. Tumor growth represented as a ratio to initial tumor volume is shown over a total of 72-days.
Tumor growth as well as animal health were monitored for up to 72 days post-day 1 of treatment. […] Significant differences in tumor growth between Example 29 treated (n=64) and vehicle treated (n=20) animals were observed as early as day 4 (p<0.001; unpaired t-test; Prism® analysis) through to Day 70.

[2] = system: MDA MB 231 orthotopic xenografts; assay: Vascular Disruption Assay (tumor perfusion, Hoechst 33342); type: in vivo, BALB/c-nu/nu mice; conditions: compared with CA4 / CA4P, FIG. 4; i.v., 24 hours after injection
Description: Vascular Disruption Assay:
Female athymic BALB/c-nu/nu mice (nude mice) were used for this study. Mice were between 6-8 weeks old and were purchased from the Animal Resource Centre, Perth, Western Australia and allowed to acclimatize for a couple of days. All the animals were housed under pathogen-free conditions and cared for in accordance with Flinders University of South Australia and NH&MRC guidelines and the Australian Code of Practice for the care and use of animals for scientific purposes. The human breast cancer MDA MB 231 was grown as orthotopic xenografts in the mammary fat pad of nude mice. Each mouse was injected with 2×10^6 cells in 50 μl Dulbecco's PBS subcutaneously just above the mammary fat pad, below the right forward limb. Tumors were selected for treatment when they reached a diameter of […] (3 weeks after implantation). The test compound (Example 29) was dissolved in saline solution and injected intravenously at concentrations ranging from 150 mg/kg-1 mg/kg in a total volume of 400 ul. […] Non-tumor regions were mapped on Hoechst 33342 composite images and excluded from the quantitation analysis. Quantitation was performed by measuring the pixel area of Hoechst 33342 staining and the total pixel area of the tumor region. Perfusion was expressed as a percentage of Hoechst 33342 stained area to total tumor area (see FIG. 4).

COc1cc(C(=O)c2c(C)oc3c(OP(=O)([O-])[O-])c(OC)ccc23)cc(OC)c1OC.[Na+].[Na+] [Example 29, Disodium 6-methoxy-2-methyl-3-(3,4,5-trimethoxybenzoyl)benzofuran-7-yl phosphate]
tumor growth (ratio to initial tumor volume) [1]: tumor growth inhibition
potency at shutting-down tumour vasculature (reduction in tumour perfusion) [2]: significantly greater potency than CA4 (1)
